Literature values as cited in patent US20100041622A1, “Compositions containing aminoalkanes and aminoalkane derivatives” (priority 2008, published 2010).

System: not given
Conditions: hydrophilic-lipophilic balance value, known values
In the case of Sorbitan Palmitate, the HLB is given as 6.7.
In the case of CCCCCCCCCCCCCCCCCC(=O)OCC(O)CO (centres unmarked) [Glyceryl Stearate], the HLB is listed as 3.5.
In the case of PEG-4 lauryl ether, the HLB is given as 9.7.
For Nonoxynol-9, the HLB is given as 12.9.
For Sorbitan monostearate, the HLB is listed as 4.7.
For Phosphatidylcholine, the HLB is listed as 7.6.
For PEG-100 Stearate, the HLB is given as 18.8.

System: vasoconstrictor activity
Conditions: see U.S. Pat. No. 2,350,318
For CCC(C)CC(C)N (centres unmarked) [2-amino-4-methylhexane], the “vasoconstrictor activity compared to ephedrine or amphetamine” value is listed as “greater vasoconstrictor activity”.

System: vasoconstrictor activity (blood pressure of pithed animal subject)
Conditions: average epinephrine equivalent per 1 mg of sulfate derivative
For C=C(C)CCC(C)N (centres unmarked) [2-amino-5-methylhexene-5], the “Epinephrine equivalent (micrograms (μg)) of 1 mg of the sulfate salt of the aminoalkane” value (from here on “Epinephrine equivalent (micrograms (μg))”) is listed as 0.504 µg.
For CCCC(C)C(C)N (centres unmarked) [2-amino-3-methylhexane], the “Epinephrine equivalent (micrograms (μg))” value is listed as 0.858 µg.
In the case of CCC(C)CCN (centres unmarked) [1-amino-3-methyl pentane], the “Epinephrine equivalent (micrograms (μg))” value is listed as 0.193 µg.
In the case of CCCC(C)N (centres unmarked) [2-amino-pentane], the “Epinephrine equivalent (micrograms (μg))” value is given as 0.395 µg.
For CC(C)CCN [1-amino-3-methyl butane], the “Epinephrine equivalent (micrograms (μg))” value is given as 0.238 µg.
In the case of CCCCCCN [1-amino-hexane], the “Epinephrine equivalent (micrograms (μg))” value is given as 0.766 µg.
In the case of CCCC(N)CCC [4-aminoheptane], the “Epinephrine equivalent (micrograms (μg))” value is given as 0.048 µg.
For CC(C)CC(C)CC(C)N (centres unmarked) [2-amino-4,6-dimethylheptane], the “Epinephrine equivalent (micrograms (μg))” value is listed as 0.193 µg.
For C=CCCC(C)N (centres unmarked) [2-amino-hexene-5], the “Epinephrine equivalent (micrograms (μg))” value is listed as 0.193 µg.
In the case of CCCCCCCN [1-amino-heptane], the “Epinephrine equivalent (micrograms (μg))” value is listed as 0.276 µg.
In the case of CC(C)=CCCC(C)N (centres unmarked) [2-amino-6-methylheptene-5], the “Epinephrine equivalent (micrograms (μg))” value is given as 0.391 µg.
For CC(C)CC(N)CC(C)C [4-amino-2,6-dimethylheptane], the “Epinephrine equivalent (micrograms (μg))” value is given as “nil”.
For CCC(C)CCC(C)N (centres unmarked) [2-amino-5-methylheptane], the “Epinephrine equivalent (micrograms (μg))” value is listed as 0.980 µg.
For CCC(CC)CCC(C)N (centres unmarked) [2-amino-5-ethylheptane], the “Epinephrine equivalent (micrograms (μg))” value is given as 0.358 µg.
In the case of CCCCCC(O)C(C)N (centres unmarked) [2-amino-3-hydroxy-octane], the “Epinephrine equivalent (micrograms (μg))” value is given as 0.122 µg.
In the case of CCCCCN [1-amino-pentane], the “Epinephrine equivalent (micrograms (μg))” value is given as 0.210 µg.
In the case of CC(N)CC(C)(C)C (centres unmarked) [2-amino-4,4-dimethylpentane], the “Epinephrine equivalent (micrograms (μg))” value is listed as 0.083 µg.
In the case of CC(C)C(C)CCN (centres unmarked) [1-amino-3,4-dimethylpentane], the “Epinephrine equivalent (micrograms (μg))” value is given as 1.720 µg.
For CCC(N)CCC(C)C (centres unmarked) [3-amino-6-methylheptane], the “Epinephrine equivalent (micrograms (μg))” value is listed as “nil”.
For CCCC(C)CCN (centres unmarked) [1-amino-3-methylhexane], the “Epinephrine equivalent (micrograms (μg))” value is listed as 0.108 µg.
In the case of CCCCCCCCN [1-amino-octane], the “Epinephrine equivalent (micrograms (μg))” value is given as “nil”.
In the case of CC(C)CCC(C)N (centres unmarked) [2-amino-5-methylhexane], the “Epinephrine equivalent (micrograms (μg))” value is listed as 1.560 µg.
In the case of CC(C)CC(C)CCN (centres unmarked) [1-amino-3,5-dimethylhexane], the “Epinephrine equivalent (micrograms (μg))” value is listed as 0.660 µg.
For CCCCC(C)C(C)N (centres unmarked) [2-amino-3-methylheptane], the “Epinephrine equivalent (micrograms (μg))” value is given as 0.530 µg.
In the case of CC(C)CCC(C)C(C)N (centres unmarked) [2-amino-3,6-dimethylheptane], the “Epinephrine equivalent (micrograms (μg))” value is given as 0.910 µg.
For CCCCCCC(C)N (centres unmarked) [2-amino-octane], the “Epinephrine equivalent (micrograms (μg))” value is given as 0.510 µg.
In the case of CCCCCCC(C)CC(C)N (centres unmarked) [2-amino-4-methyldecane], the “Epinephrine equivalent (micrograms (μg))” value is listed as 0.242 µg.
For CCCCCC(N)CC (centres unmarked) [3-amino-octane], the “Epinephrine equivalent (micrograms (μg))” value is given as 0.142 µg.
In the case of CCCCC(C)CC(C)N (centres unmarked) [2-amino-4-methyloctane], the “Epinephrine equivalent (micrograms (μg))” value is given as 0.475 µg.
For CCCCCC(C)N (centres unmarked) [2-aminoheptane], the “Epinephrine equivalent (micrograms (μg))” value is listed as 3.100 µg.
For CC(C)CCCC(C)N (centres unmarked) [2-amino-6-methylheptane], the “Epinephrine equivalent (micrograms (μg))” value is given as 2.620 µg.
In the case of CCCC(C)CC(C)N (centres unmarked) [2-amino-4-methylheptane], the “Epinephrine equivalent (micrograms (μg))” value is listed as 0.786 µg.
In the case of CC(C)CCCN [1-amino-4-methyl pentane], the “Epinephrine equivalent (micrograms (μg))” value is given as 0.530 µg.
In the case of CC(C)CC(C)N (centres unmarked) [2-amino-4-methylpentane], the “Epinephrine equivalent (micrograms (μg))” value is listed as 0.840 µg.
In the case of CCCCC(N)CC (centres unmarked) [3-aminoheptane], the “Epinephrine equivalent (micrograms (μg))” value is listed as 0.149 µg.
For CCC(C)CC(C)N (centres unmarked) [2-amino-4-methylhexane], the “Epinephrine equivalent (micrograms (μg))” value is given as 3.520 µg.
For CC(N)CC(C)CC(C)(C)C (centres unmarked) [2-amino-4,6,6-trimethylheptane], the “Epinephrine equivalent (micrograms (μg))” value is given as “nil”.
For CCCCC(C)N (centres unmarked) [2-aminohexane], the “Epinephrine equivalent (micrograms (μg))” value is given as 0.901 µg.
In the case of CCCCC(C)CCN (centres unmarked) [1-amino-3-methylheptane], the “Epinephrine equivalent (micrograms (μg))” value is listed as 1.230 µg.
